Tests used:
Type in all cases: in vivo
Lepeophtheirus salmonis [1] = test: Sea lice recovery in clean seawater after exposure; conditions: any concentration (10-25 mg/l), post-exposure period up to 6 hours
Experimental: Imidacloprid exposed parasites from both the relative efficacy and rate determination studies (both those removed manually from their host post-treatment and those that detached during treatment) were immersed into clean seawater and observed for signs of recovery.
At the time of the first observation, exposed individuals were determined to be either dead or still active. Of those still active, muscular excitation was uncoordinated, uncontrolled and limited.

[2] = system: pre-adult and adult sea lice; test: Timescale of effect of imidacloprid against sea lice on killed salmon hosts; conditions: for lice that left the host: around 12° C.
Experimental: To determine the timescale of the effect of imidacloprid, salmon infected with pre-adult and adult sea lice were removed from a stock tank and killed using a sharp blow to the head.
For fish exposed to 0 ppm imidacloprid (negative controls), observations were made for 60 minutes. […] Three fish per treatment group were tested.
Observations on the time at which lice left the host, and the sex and stage of the sea louse was noted. Any lice that left the host were transferred to clean sea water immediately. Furthermore, any lice remaining on the host at the end of the exposure period were removed from the host and transferred to clean sea water.
Lice were observed both shortly after and approximately 2 hours after the end of the exposure period.
The ratio of male to female sea lice was around 50:50. The water temperature was around 12° C.

Lepeophtheirus salmonis [3] = test: Immersion treatment of sea lice challenged salmon with 10, 30 and 50 ppm imidacloprid; conditions: for Abundance (and range) of adult female lice / Abundance (and range) of adult male lice / Abundance (and range) of ovigerous females / Mean abundance (and range) or all lice stages / Prevalence: lice counted week 8
Source text: Eight flow-through treatment tanks each containing 15 fish were set up. The fish were Salmon (Salmo salar) having an average weight of approximately 270 g and of mixed sex. Egg strings removed from ovigerous female Lepeophtheirus salmonis were collected and cultured until infective copepodids were produced. Eight bottles containing approximately 330-350 copepodids were each randomly allocated to a treatment tank (to provide an average of 22 lice per fish).
In preparation for the challenge, water flows in the tanks were stopped and light levels reduced. The lice were then added to each tank and the tanks maintained in total darkness for 6 hours after which light levels were raised and the water flow resumed.
The fish were challenged with sea lice for either one week or for six weeks.
One week after the sea lice challenge, fish in three of the tanks were treated with either 10 ppm w/v, 30 ppm w/v or 50 ppm w/v imidacloprid. One of the tanks was treated with 0.03% DMSO and another tank sham treated with sea water as controls.
For each treatment tank, the appropriate amount of imidacloprid (see Table 1) was dissolved in 100 ml of DMSO and mixed with approximately 900 ml of sea water from the experimental tank to obtain a treatment solution. The water flow on the experimental tanks was disabled and the treatment solution was then added.
Fish were exposed for 60 minutes in static water with full aeration and observed during the exposure period. At the end of the exposure period the water was rapidly drained to approximately ⅓ volume, before the flows were resumed in the tanks
Six weeks after the fish were challenged with sea lice, the fish in the three remaining treatment tanks were treated with either 10 ppm w/v, 30 ppm w/v or 50 ppm w/v imidacloprid. The treatment was carried out in the same way as for the treatment tanks one week post challenge (see 1.2.1).
Eight weeks after the fish were challenged with sea lice, the study was terminated. Fish were over anaesthetised in MS222 (tricaine methanesulfonate) and pithed using an Iki Jime tool. The length and weight of each fish and external symptoms were recorded. All lice were removed from each fish and note made of sex and stage of development. The lice were stored in ethanol and sex and stage confirmed using stereo microscope.
The data is expressed as prevalence and abundance. Prevalence is defined as the number of hosts infected with one of more individuals of a parasite species divided by the number of hosts examined (including infected and uninfected hosts) and expressed as a percentage.

[4] = 10 ppm w/v 60 min, treated 1 week post challenge
[5] = 10 ppm w/v 60 min, treated 6 weeks post challenge
[6] = 30 ppm w/v 60 min, treated 1 week post challenge
[7] = 30 ppm w/v 60 min, treated 6 weeks post challenge
[8] = 50 ppm w/v 60 min, treated 1 week post challenge, two fish removed from group
[9] = 50 ppm w/v 60 min, treated 6 weeks post challenge

O=[N+]([O-])NC1=NCCN1Cc1ccc(Cl)nc1 [imidacloprid]
functional recovery of exposed parasites in clean seawater (Lepeophtheirus salmonis [1]): no clear signs of functional recovery
lice considered dead ([2]; 20 mg/L, 30 minutes post-exposure, of 49 lice): two
signs of recovery in clean sea water ([2]; 20 ppm, lice exposed for 30 minutes): No lice exposed for 30 minutes showed signs of recovery
lice deemed alive and responsive ([2]; 20 ppm, out of 49 lice): Twelve
lice considered dead ([2]; 50 ppm, 2 hours p.e., of 21 lice): 14 lice
lice considered dead ([2]; 50 ppm, at 30 minutes, of 21 lice): four
lice considered dead ([2]; 100 ppm, 2 hours p.e.): 17/28
lice considered dead ([2]; 100 ppm, end of the exposure period, of 28 lice): four
lice considered dead ([2]; 200 ppm, 2 hours post-exposure, of 26 lice): Six
lice considered dead ([2]; 200 ppm, end of the exposure period, of 26 lice): four
lice considered dead ([2]; 500 ppm, 30 minutes p.e., out of 20 lice): Six
lice considered dead ([2]; 500 ppm, 2 hours p.e.): 15/20
lice that left the host ([2]; 500 ppm, within the first 9 minutes): around 70%
lice that left the host ([2]; between 20 and 200 ppm, within the first 15 minutes): around 50%
prevalence of infection of all lice stages versus the two control groups (Lepeophtheirus salmonis [3]; 10, 30 or 50 ppm w/v, treated one week post challenge, examined week 8): not considered to differ
Abundance (and range) of adult female lice (Lepeophtheirus salmonis [3]; [4]): 0.067 (0-1)
Abundance (and range) of adult male lice (Lepeophtheirus salmonis [3]; [4]): 0.87 (0-2)
Abundance (and range) of ovigerous females (Lepeophtheirus salmonis [3]; [4]): 1.47 (0-3)
Mean abundance (and range) or all lice stages (Lepeophtheirus salmonis [3]; [4]): 2.4 (1-5)
Prevalence (Lepeophtheirus salmonis [3]; [4]): 100%
Abundance (and range) of adult female lice (Lepeophtheirus salmonis [3]; [5]): 0
Abundance (and range) of adult male lice (Lepeophtheirus salmonis [3]; [5]): 0
Abundance (and range) of ovigerous females (Lepeophtheirus salmonis [3]; [5]): 0
Mean abundance (and range) or all lice stages (Lepeophtheirus salmonis [3]; [5]): 0
Prevalence (Lepeophtheirus salmonis [3]; [5]): 0%
infected fish (each with a single ovigerous female) (Lepeophtheirus salmonis [3]; 10 ppm w/v, 6 weeks post challenge, 54 minutes after addition): 2 fish
lice remaining on fish (Lepeophtheirus salmonis [3]; 10 ppm w/v, 6 weeks post challenge, 91 minutes after addition, louse stayed at least five days): a single male louse was observed on the head of its host
lice observed in the water column (Lepeophtheirus salmonis [3]; 10 ppm w/v, 6 weeks post challenge, first 19 minutes after addition): Lice were not observed in the water column
Abundance (and range) of adult female lice (Lepeophtheirus salmonis [3]; [6]): 0 (0-0)
Abundance (and range) of adult male lice (Lepeophtheirus salmonis [3]; [6]): 0.8 (0-1)
Abundance (and range) of ovigerous females (Lepeophtheirus salmonis [3]; [6]): 1.4 (0-3)
Mean abundance (and range) or all lice stages (Lepeophtheirus salmonis [3]; [6]): 2.2 (0-4)
Prevalence (Lepeophtheirus salmonis [3]; [6]): 93.33%
Abundance (and range) of adult female lice (Lepeophtheirus salmonis [3]; [7]): 0
Abundance (and range) of adult male lice (Lepeophtheirus salmonis [3]; [7]): 0
Abundance (and range) of ovigerous females (Lepeophtheirus salmonis [3]; [7]): 0
Mean abundance (and range) or all lice stages (Lepeophtheirus salmonis [3]; [7]): 0
Prevalence (Lepeophtheirus salmonis [3]; [7]): 0%
lice on the fish with re-attached lice (Lepeophtheirus salmonis [3]; 30 ppm w/v, 6 weeks post challenge, 6 minutes after the 78 minute observation): no lice were observed on these fish
lice observed in the water column (Lepeophtheirus salmonis [3]; 30 ppm w/v, 6 weeks post challenge, 10 minutes after addition): 1-2 lice
lice present in the water column (Lepeophtheirus salmonis [3]; 30 ppm w/v, 6 weeks post challenge, 18 minutes after addition): approximately 10 lice
lice noted in the water (Lepeophtheirus salmonis [3]; 30 ppm w/v, 6 weeks post challenge, 25 minutes after addition): approximately 20 lice
fish appearing infected (estimated 1-2 lice per fish) (Lepeophtheirus salmonis [3]; 30 ppm w/v, 6 weeks post challenge, 25 minutes after addition, 15 fish per tank): less than 6 fish
infection status of fish (Lepeophtheirus salmonis [3]; 30 ppm w/v, 6 weeks post challenge, 33 minutes after addition): most fish were considered to be negative for any lice infections
fish appearing infected (each with a single louse) (Lepeophtheirus salmonis [3]; 30 ppm w/v, 6 weeks post challenge, 47 minutes after addition): 3 fish
infection status of fish (Lepeophtheirus salmonis [3]; 30 ppm w/v, 6 weeks post challenge, 59 minutes after addition): no fish were visibly infected with lice
fish with re-attached louse (1 louse each) (Lepeophtheirus salmonis [3]; 30 ppm w/v, 6 weeks post challenge, 78 minutes after addition): 4 fish
lesions associated with feeding and attachment of lice (Lepeophtheirus salmonis [3]; 30 ppm w/v, two days post-treatment): almost completely resolved
Abundance (and range) of adult male lice (Lepeophtheirus salmonis [3]; [8]): 1.23 (0-3)
Abundance (and range) of ovigerous females (Lepeophtheirus salmonis [3]; [8]): 1.69 (0-5)
Abundance (and range) of adult female lice (Lepeophtheirus salmonis [3]; [9]): 0
Abundance (and range) of adult male lice (Lepeophtheirus salmonis [3]; [9]): 0
Abundance (and range) of ovigerous females (Lepeophtheirus salmonis [3]; [9]): 0
Mean abundance (and range) or all lice stages (Lepeophtheirus salmonis [3]; [9]): 0
Prevalence (Lepeophtheirus salmonis [3]; [9]): 0%
fish noted as infected (each with a single louse) (Lepeophtheirus salmonis [3]; 50 ppm w/v, 6 weeks post challenge, 44 minutes after addition, 15 fish per tank): five
fish with a single louse infection (Lepeophtheirus salmonis [3]; 50 ppm w/v, 6 weeks post challenge, 53 minutes after addition): 2-3 fish
lice remaining on fish (Lepeophtheirus salmonis [3]; 50 ppm w/v, 6 weeks post challenge, 58 minutes after addition): only one louse was apparent on a single fish
lice remaining on fish (Lepeophtheirus salmonis [3]; 50 ppm w/v, 6 weeks post challenge, 81 minutes after addition): no lice were visible on the fish
lice detached from the host, free in the water column (Lepeophtheirus salmonis [3]; 50 ppm w/v, 6 weeks post challenge, after 12 minutes): approximately 10 lice
lice observed in the water column (Lepeophtheirus salmonis [3]; 50 ppm w/v, 6 weeks post challenge, after 18 minutes): approximately 20 lice
lice observed in the water column (Lepeophtheirus salmonis [3]; 50 ppm w/v, 6 weeks post challenge, between 2 and 6 minutes after addition): No lice were observed
lesions associated with feeding and attachment of lice (Lepeophtheirus salmonis [3]; 50 ppm w/v, two days post treatment): almost completely resolved
effectiveness against motile parasitic stages of lice (Lepeophtheirus salmonis [3]; all treatment doses (10, 30, 50 ppm w/v), treated six weeks after challenge): 100%
overall lice abundances compared with the DMSO control (Lepeophtheirus salmonis [3]; treated one week post challenge): No significant differences

From patent US20200068887A1, “TREATMENT FOR REMOVING ECTOPARASITES FROM FISH” (priority 2016, published 2020)
